Measurements published in patent US5075289A, “9-R-azacyclic erythromycin antibiotics” (priority 1988, dated 1991).
In brackets after ≈: the same amount, converted by molar mass. Where two headings read alike, the source gives them in different places.

What was measured:
Experiment in all cases: In vitro antibacterial activity, agar dilution MIC
Type in all cases: cell-based
[1] = tested on: Enterococcus faecium ATCC 8043
Procedure, shortened: (§1)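 In agar dilution on Brain Heart Infusion agar, twelve successive compound dilutions were inoculated at 1:100 (1:10 for slow growers such as Streptococcus) by replicator and incubated 20–24 h at 35–37 °C. MIC is the lowest concentration giving no growth, slight haze or sparse colonies; erythromycin A was the class control.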

Escherichia coli DC-2 = details: DC2
Procedure, shortened: as §1

Escherichia coli H560 = details: H560
Procedure, shortened: as §1

Escherichia coli Juhl = tested on: Escherichia coli Juhl
Procedure, shortened: as §1

Escherichia coli SS = details: read-out: MIC
Procedure, shortened: as §1

[2] = tested on: Haemophilus influenzae 1177; details: H. influenzae 1177
Procedure, shortened: as §1

[3] = tested on: Haemophilus influenzae 1435; details: H. influenzae 1435
Procedure, shortened: as §1

[4] = tested on: Haemophilus influenzae 503B; details: H. influenzae 503B
Procedure, shortened: as §1

[5] = tested on: Haemophilus influenzae 504; details: H. influenzae 504
Procedure, shortened: as §1

[6] = tested on: Haemophilus influenzae 519A; details: H. influenzae 519A
Procedure, shortened: as §1

[7] = tested on: Haemophilus influenzae 566A; details: H. influenzae 566A
Procedure, shortened: as §1

[8] = tested on: Haemophilus influenzae 588A; details: H. influenzae 588A
Procedure, shortened: as §1

[9] = tested on: Haemophilus influenzae 632A; details: H. influenzae 632A
Procedure, shortened: as §1

[10] = tested on: Haemophilus influenzae 667A; details: H. influenzae 667A
Procedure, shortened: as §1

[11] = tested on: Haemophilus influenzae 747C; details: H. influenzae 747C
Procedure, shortened: as §1

[12] = tested on: Haemophilus influenzae 751; details: H. influenzae 751
Procedure, shortened: as §1

[13] = tested on: Haemophilus influenzae ATCC 10211; details: ATCC10211, H. influenzae ATCC 10211
Procedure, shortened: as §1

[14] = tested on: Haemophilus influenzae ATCC 19418; details: ATCC19418, H. influenzae ATCC 19418
Procedure, shortened: as §1

[15] = tested on: Haemophilus influenzae ATCC 9795; details: ATCC9795, H. influenzae ATCC 9795
Procedure, shortened: as §1

[16] = tested on: Haemophilus influenzae DILL AMP R; details: H. influenzae DILL AMP R
Procedure, shortened: as §1

[17] = tested on: Haemophilus influenzae SOL AMP R; details: H. influenzae SOL AMP R
Procedure, shortened: as §1

[18] = tested on: Haemophilus influenzae SPK AMP R; details: H. influenzae SPK AMP R
Procedure, shortened: as §1

[19] = tested on: Micrococcus luteus ATCC 4698
Procedure, shortened: as §1

[20] = tested on: Micrococcus luteus ATCC 9341; details: ATCC9341, M. luteus ATCC 9341, Brain Heart Infusion agar, 20-24 hours, read-out: MIC
Procedure, shortened: as §1

Staphylococcus aureus 45 = tested on: Staphylococcus aureus 45
Procedure, shortened: as §1

[21] = tested on: Staphylococcus aureus A5177; details: S. aureus A5177, Brain Heart Infusion agar, 20-24 hours, read-out: MIC
Procedure, shortened: as §1

[22] = tested on: Staphylococcus aureus ATCC 6538P; details: ATCC6538P
Procedure, shortened: as §1

[23] = tested on: Staphylococcus aureus CMX 553; details: CMX553, S. aureus CMX 553, Brain Heart Infusion agar, 20-24 hours, read-out: MIC
Procedure, shortened: as §1

[24] = tested on: Staphylococcus aureus CMX 686B; details: CMX686B, S. aureus CMX 686B, Brain Heart Infusion agar, 20-24 hours, read-out: MIC
Procedure, shortened: as §1

[25] = tested on: Staphylococcus epidermidis 3519; details: S. epidermidis 3519, Brain Heart Infusion agar, 20-24 hours, read-out: MIC
Procedure, shortened: as §1

[26] = tested on: Streptococcus agalactiae CMX 508; details: CMX508, S. agalactiae CMX 508, Brain Heart Infusion agar, 20-24 hours, read-out: MIC
Procedure, shortened: as §1

[27] = tested on: Streptococcus bovis A5169
Procedure, shortened: as §1

[28] = tested on: Streptococcus pyogenes 2548 INDUC; details: S. pyogenes 2548 INDUC, Brain Heart Infusion agar, 20-24 hours, read-out: MIC
Procedure, shortened: as §1

[29] = tested on: Streptococcus pyogenes 930 CONST; details: 930CONST
Procedure, shortened: as §1

[30] = tested on: Streptococcus pyogenes EES61; details: S. pyogenes EES61, Brain Heart Infusion agar, 20-24 hours, read-out: MIC
Procedure, shortened: as §1

SMILES	MIC (Escherichia coli DC-2) [µg/mL]	MIC (Escherichia coli H560) [µg/mL]	MIC (Escherichia coli Juhl) [µg/mL]	MIC [2] [µg/mL]	MIC [3] [µg/mL]	MIC [4] [µg/mL]	MIC [5] [µg/mL]	MIC [6] [µg/mL]	MIC [7] [µg/mL]	MIC [8] [µg/mL]	MIC [9] [µg/mL]	MIC [10] [µg/mL]	MIC [11] [µg/mL]	MIC [12] [µg/mL]	MIC [13] [µg/mL]	MIC [14] [µg/mL]	MIC [15] [µg/mL]	MIC [16] [µg/mL]	MIC [17] [µg/mL]	MIC [18] [µg/mL]	further results
CC[C@H]1OC(=O)[C@H](C)[C@@H](O[C@H]2C[C@@](C)(OC)[C@@H](O)[C@H](C)O2)[C@H](C)[C@@H](O[C@@H]2O[C@H](C)C[C@H](N(C)C)[C@H]2O)[C@](C)(O)C[C@@H](C)[C@@H](N2CCOCC2)[C@H](C)[C@@H](O)[C@]1(C)O [Example 19]	50 (≈ 62.1 µM)	6.2 (≈ 7.7 µM)	50 (≈ 62.1 µM)	0.25 (≈ 0.311 µM)	1 (≈ 1.24 µM)	1 (≈ 1.24 µM)	4 (≈ 4.97 µM)	2 (≈ 2.48 µM)	4 (≈ 4.97 µM)	2 (≈ 2.48 µM)	4 (≈ 4.97 µM)	4 (≈ 4.97 µM)	2 (≈ 2.48 µM)	8 (≈ 9.94 µM)	2 (≈ 2.48 µM)	4 (≈ 4.97 µM)	4 (≈ 4.97 µM)	2 (≈ 2.48 µM)	2 (≈ 2.48 µM)	4 (≈ 4.97 µM)	MIC ([1]; ATCC8043): 0.1 µg/mL (≈ 0.124 µM); MIC (Escherichia coli SS): 0.2 µg/mL (≈ 0.248 µM); MIC ([19]; ATCC4698, read-out: MIC): 0.2 µg/mL (≈ 0.248 µM); MIC [20]: 0.05 µg/mL (≈ 0.0621 µM); MIC (Staphylococcus aureus 45; 45): 0.39 µg/mL (≈ 0.484 µM); MIC [21]: 6.2 µg/mL (≈ 7.7 µM); MIC [22]: 0.39 µg/mL (≈ 0.484 µM); MIC [23]: 0.39 µg/mL (≈ 0.484 µM); MIC [24]: 0.39 µg/mL (≈ 0.484 µM); MIC [25]: 0.39 µg/mL (≈ 0.484 µM); MIC [26]: 0.05 µg/mL (≈ 0.0621 µM); MIC [27]: 0.1 µg/mL (≈ 0.124 µM); MIC [28]: 6.2 µg/mL (≈ 7.7 µM); MIC [29]: > 100 µg/mL; MIC [30]: 0.05 µg/mL (≈ 0.0621 µM)
CC[C@H]1OC(=O)[C@H](C)[C@@H](O[C@H]2C[C@@](C)(OC)[C@@H](O)[C@H](C)O2)[C@H](C)[C@@H](O[C@@H]2O[C@H](C)C[C@H](N(C)C)[C@H]2O)[C@](C)(O)C[C@@H](C)[C@@H](N2CCCCC2)[C@H](C)[C@@H](O)[C@]1(C)O [Example 5]	50 (≈ 62.3 µM)	25 (≈ 31.1 µM)	50 (≈ 62.3 µM)	0.25 (≈ 0.311 µM)	0.5 (≈ 0.623 µM)	0.5 (≈ 0.623 µM)	1 (≈ 1.25 µM)	0.5 (≈ 0.623 µM)	2 (≈ 2.49 µM)	1 (≈ 1.25 µM)	1 (≈ 1.25 µM)	1 (≈ 1.25 µM)	1 (≈ 1.25 µM)	4 (≈ 4.98 µM)	1 (≈ 1.25 µM)	2 (≈ 2.49 µM)	1 (≈ 1.25 µM)	1 (≈ 1.25 µM)	1 (≈ 1.25 µM)	1 (≈ 1.25 µM)	MIC ([1]; ATCC8043, E. faecium ATCC 8043, Brain Heart Infusion agar, 20-24 hours, read-out: MIC): 0.1 µg/mL (≈ 0.125 µM); MIC (Escherichia coli SS; E. coli SS, Brain Heart Infusion agar, 20-24 hours): 0.39 µg/mL (≈ 0.486 µM); MIC ([19]; ATCC4698, M. luteus ATCC 4698, Brain Heart Infusion agar, 20-24 hours, read-out: MIC): 0.2 µg/mL (≈ 0.249 µM); MIC [20]: 0.1 µg/mL (≈ 0.125 µM); MIC (Staphylococcus aureus 45; S. aureus 45, Brain Heart Infusion agar, 20-24 hours, read-out: MIC): 0.78 µg/mL (≈ 0.971 µM); MIC [21]: 6.2 µg/mL (≈ 7.72 µM); MIC ([22]; S. aureus ATCC 6538P, Brain Heart Infusion agar, 35-37° C., 20-24 hours, read-out: MIC): 0.39 µg/mL (≈ 0.486 µM); MIC [23]: 0.39 µg/mL (≈ 0.486 µM); MIC [24]: 0.39 µg/mL (≈ 0.486 µM); MIC [25]: 0.39 µg/mL (≈ 0.486 µM); MIC [26]: 0.05 µg/mL (≈ 0.0623 µM); MIC ([27]; S. bovis A5169, Brain Heart Infusion agar, 20-24 hours, read-out: MIC): 0.1 µg/mL (≈ 0.125 µM); MIC [28]: 6.2 µg/mL (≈ 7.72 µM); MIC [29]: > 100 µg/mL; MIC [30]: 0.05 µg/mL (≈ 0.0623 µM)
